Measurements from patent publication US20060153958A1, “Relating to flavour compositions” (priority 2003, published 2006).

Tests used:
Streptococcus mutans R9 [1] = test: Synergy of flavour material with fluoride in reducing acid production (bottle pH test); assay type: cell-based; conditions: flavour material at 250 ppm plus fluoride (NaF); 2% glucose; anaerobic incubation 18-24 hours; pH difference between broths
Experimental: (§1) 250 ml of PM broth (of formulation as described in Example 1(a) above) was charged to a Duran bottle bunged with a breathable stopper and inoculated with a loopful of Streptococcus mutans R9 (as above). The bacterial culture was then incubated anaerobically for 2-3 days at 37° C., followed by centrifugation at 3600 rpm for 10 minutes. The supernatant was decanted to waste. The pellets remaining were resuspended in 12 ml of 0.1% peptone and the optical density at 540 nm (OD540) measured and adjusted (if required) by diluting with fresh PM broth to between 0.2 and 0.3 to give a stock inoculum culture.
(§2) Broth was prepared by adding 4% (w/v) glucose to 0.3% (w/v) TSB broth (GTSB). The broth was sterilised by aseptically passing the solution through a 0.22 μm filter into a sterile bottle.
Control incubations were prepared by adding 2.5 ml of the stock inoculum culture (adjusted to an OD540 of 0.2-0.3) to 2.5 ml of GTSB containing 4% (w/v) glucose in 0.3% (w/v) TSB.
A test flavour material/flavour was diluted in the GTSB to give a stock solution of flavour material/flavour with a final concentration of 25,000 ppm (250 mg flavour material/flavour in 10 ml of GTSB).
Flavour material/flavour incubations were prepared by adding 2.5 ml of the stock inoculum culture to 2.45 ml of GTSB, and 50 μl of flavour material/flavour stock solution. Thus, flavour materials/flavours were tested at a final concentration of 250 ppm, for their efficacy in inhibiting acid production from 2% glucose.
The mixtures were then incubated anaerobically.
(§3) After anaerobic incubation of the resulting mixtures for 18-24 hours, the pH of the suspensions was measured using a 476530M combination pH electrode (Mettler Toledo, 64 Boston Road, Beaumont Leys, Leicester, LE4 1AW), calibrated using pH 4 and pH 7 buffers. Results were recorded as the difference in pH change between broths containing flavour material/flavour and an untreated control.
Flavour materials useful in a flavour composition of the invention were tested at 250 ppm for their potential synergy with fluoride as described below.
Control and flavour material incubations were prepared as described in Example 1(b) above.
A fluoride stock solution (2,500 ppm F^−) was prepared by dissolving […] NaF in 10 ml of GTSB. For fluoride controls, 2.5 ml of stock inoculum culture was added to 2.48 ml of GTSB, and 20 μl of fluoride stock solution.
For flavour material and fluoride incubations, 2.5 ml of stock inoculum culture was added to 2.43 ml of GTSB, 50 μl of flavour material stock solution and 20 μl of fluoride stock solution.
The mixtures were incubated anaerobically.
as §3, with “broths.” for “broths containing flavour material/flavour and an untreated control.”
(§4) If the pH of the incubated broth containing flavour material and fluoride was higher than that measured for incubated broths containing either flavour material or fluoride, then this was considered to indicate that there had been a synergistic effect between the flavour material and fluoride in reducing the acid production of Streptococcus mutans.

Streptococcus mutans R9 [2] = test: Synergy of flavour material with xylitol in reducing acid production (glucose/xylitol broth pH test); assay type: cell-based; conditions: anaerobic incubation 18-24 hours, pH difference between broths
Experimental: Xylitol is a sugar substitute that has been used in many products as a non-cariogenic sweetener. The potential synergy between xylitol and a flavour material useful in the composition of the invention was investigated using a glucose/xylitol broth by the following method. Flavour materials were tested at 250 ppm unless otherwise stated.
as §1, §2
Control and flavour material incubations were prepared as described in Example 1(b) above. Xylitol synergy was investigated by adding 2.5 ml of stock inoculum culture to 2.5 ml of GTSB supplemented with 4% (w/v) xylitol. […]
as §3, with “broths.” for “broths containing flavour material/flavour and an untreated control.”
as §4, with “xylitol” for “fluoride”, “recorded” for “measured”, “xylitol,” for “fluoride,”, “was” for “had been”, “synergy” for “synergistic effect”, “mutans. […]” for “mutans.”

## CCCCCCCCCC=O [Aldehyde C10 (Decanal), decanal]
Streptococcus mutans R9 [1]
  Synergy with Fluoride: ++ (Inhibition of acid production by an additional 0.25-0.49 pH units)

## CCCCCCCCCO [Alcohol C9, nonanol]
Streptococcus mutans R9 [2]; flavour material at 62.5 ppm
  Synergy with Xylitol: +++ (Inhibition of acid production by an additional 0.50-0.74 pH units)

## CC(=O)/C=C/C1C(C)=CCCC1(C)C (stereo not drawn) [Ionone Alpha, ionone alpha]
Streptococcus mutans R9 [2]; flavour material at 125 ppm
  Synergy with Xylitol: ++++ (Inhibition of acid production by an additional 0.75 pH units or more (i.e. >0.75 pH units in addition to the effect of fluoride or flavour material alone))

## CC(C)=CCCC(C)=CC=O [Citral Natural, citral]
Streptococcus mutans R9 [1]
  Synergy with Fluoride: + (Inhibition of acid production by an additional 0.01-0.24 pH units)

## Damascone
Streptococcus mutans R9 [2]; flavour material at 250 ppm
  Synergy with Xylitol: ++ (Inhibition of acid production by an additional 0.25-0.49 pH units)

## Cc1ccc(C(C)C)c(O)c1 [Thymol, thymol]
Streptococcus mutans R9 [1]
  Synergy with Fluoride: + (Inhibition of acid production by an additional 0.01-0.24 pH units)

## CC=Cc1ccc(OC)cc1 [Anethole Synthetic, anethole]
Streptococcus mutans R9 [1]
  Synergy with Fluoride: ++++ (Inhibition of acid production by an additional 0.75 pH units or more (i.e. >0.75 pH units in addition to the effect of fluoride or flavour material alone))

## O=C/C=C/c1ccccc1 [Cinnamic Aldehyde Extra, cinnamic aldehyde]
Streptococcus mutans R9 [1]
  Synergy with Fluoride: ++ (Inhibition of acid production by an additional 0.25-0.49 pH units)

## CCCCCCCCCCO [Alcohol C10 (Decanol), decanol]
Streptococcus mutans R9 [1]
  Synergy with Fluoride: ++++ (Inhibition of acid production by an additional 0.75 pH units or more (i.e. >0.75 pH units in addition to the effect of fluoride or flavour material alone))
